# In article PMC10689823, “Discovery of a Drug-like, Natural Product-Inspired DCAF11 Ligand Chemotype” (Nature Communications, 2023):
# “And” between values parts separate entries of the source, which are not always exact repeats. Identical values can stand only once.
# What was measured:
# Assay type in all cases: cell-based
# BRD2 [1] = biological target: T1, BRD2 (Homo sapiens, UniProt P25440); test: BRD2 levels by Western blot in KBM7 cells (WT, DCAF11 knockout, DDB1 knockout); set-up: endogenous in cells; host or cells: KBM7 (WT, DCAF11 KO, DDB1 KO); conditions: for BRD2 degradation after knockout of DDB1 in KBM7 cells: 0.5 µg/mL Dox for 3 days, then compound 4 h; for BRD2 degradation in DCAF11 knockout (KO1 and KO2) KBM7 cells: 9 at 3 μM, 10 at 10 μM, 11 at 10 μM, 6 h; for BRD2 degradation in KBM7 cells: 4 h
# Procedure: (§1) Cells were washed with PBS and lysed in lysis buffer (50 mM Tris-HCl, pH 7.4, 150 mM NaCl, 1% Triton X-100, 1% sodium deoxycholate, 0.1% SDS) with complete protease inhibitor cocktail (Roche, 11836170001) for 30 min on ice. For Ramos cells, cell pellets were lysed in lysis buffer (50 mM Tris-HCl, pH 8, 150 mM NaCl, 1% NP-40, 0.5% sodium deoxycholate) with complete protease inhibitor cocktail. After centrifugation at 16,000 x g, the supernatant was transferred into a new tube and the protein concentration was determined by DC protein assay (BIO-RAD, 5000116). Proteins were separated by SDS-PAGE and transferred to a PVDF membrane (Thermo scientific, 0.45 μm, 88518). For PDEδ, BRD2, GAPDH, BRD4, Vinculin and BTK, the membranes were blocked with Intercept® Blocking Buffer (LI-COR Biosciences, 927-70001) at room temperature for 1 h. The primary antibodies for these proteins were diluted with Intercept® Blocking Buffer (1:500 for PDEδ, 1:3000 for Vinculin, and 1:1000 for other proteins) and incubated with the membranes overnight at 4 °C. Membranes were washed with PBS + 0.1% Tween 20 (PBS-T) five times and incubated with secondary antibodies conjugated to IRDye® Infrared Fluorescent Dyes (1:5000, LI-COR Biosciences) at room temperature for 1 h with protection from light. After washing the membrane, signals were visualized using the ChemiDoc MP Imaging System (BIO-RAD Laboratories). For detection of LC3B, BRD3, BLK, DCAF11, DDB1 RBX1, FIP200, V5- and FLAG-Tag the membranes were blocked with 5% milk in PBS-T at room temperature for 1 h. The primary antibodies for these proteins were diluted in 5% milk in PBS-T buffer (1:200 for BRD3, 1:1000 for other proteins) and incubated with the membranes overnight at 4 °C. Membranes were washed with PBS-T five times and incubated with HRP secondary antibodies (1:1500) at room temperature for 1 h. After washing the membrane, protein detection was performed using Western blotting detection reagent (Thermo Scientific, 34095) and the ChemiDoc MP Imaging System (BIO-RAD). Relative band intensities were quantified using Image Lab (BIO-RAD).
# DCAF11- or FIP200 (RB1CC1)-targeting sgRNAs were lentivirally packaged using PEI transfection of Lenti-X cells. The viral supernatant was harvested after 72 h, cleared of cellular debris by filtration through a 0.45-µm PES filter and stored in aliquots at −80 °C. The appropriate amount of viral supernatant was transduced into KBM7 cells (1 × 10^6 cells/mL) via spinfection (2000 rpm, 1 h, 37 °C) with polybrene (8 µg/mL). Two days post transduction, the cells were selected with puromycin (1 µg/mL) for a total of 5 days, after which the knockout pools were validated via western blotting.
# BRD3 = biological target: T2, BRD3 (Homo sapiens, UniProt Q15059); test: BRD3 levels by Western blot in Jurkat cells; conditions: for degradation of BRD3: 3 µM, 6 h treatment
# T2 construct: endogenous in cells; host or cells: Jurkat
# Procedure: as §1
# Jurkat cells = test: Cell viability assay (CellTiter-Glo) in Jurkat cells; conditions: for GI50: Homo sapiens; for GI50 / Relative cell viability (%): Jurkat cells, 72 h; for Relative cell viability (%): Fig. 4k; for Cell viability (%) relative to DMSO: individual replicates, Supplementary Fig. 7g
# Procedure, shortened: (§2)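 Jurkat and Hep G2 cells were exposed to compounds for 72 h, with an untreated plate counted at time zero. Viability was read as CellTiter-Glo luminescence after 10 min reagent incubation at room temperature.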
# [2] = as above; conditions: human, Jurkat cells; for viability at 72 h, 10 nmol/L: concentration 10 nmol/L; for viability at 72 h, 30 nmol/L: concentration 30 nmol/L; for viability at 72 h, 100 nmol/L: concentration 100 nmol/L; for viability at 72 h, 1000 nmol/L: concentration 1000 nmol/L; for viability at 72 h, 3000 nmol/L: concentration 3000 nmol/L; for viability at 72 h, 0.01 µM: 10 nM; for viability at 72 h, 0.03 µM: 30 nM; for viability at 72 h, 0.1 µM: 100 nM; for viability at 72 h, 0.3 µM: 300 nM; for viability at 72 h, 1 µM: 1000 nM
# Procedure, shortened: as §2
# BRD4(S)-BFP = biological target: T3, BRD4(S)-BFP (Homo sapiens, UniProt O60885); test: Flow cytometry-based BRD4 reporter assay (DCAF11 knockout/rescue); conditions: 6 h, 10 at 5 µM, 9 at 1 µM, dBET6 at 0.5 µM, DMSO = 1
# T3 construct: BRD4 short isoform (amino acids 1-719; Twist Bioscience); V5; P2A-mCherry (mCherry split off by P2A self-cleavage) (C, cleaved yes); expressed in transfected cells; host or cells: KBM7 iCas9 cells, lentiviral SFFV-BRD4(S)-mTagBFP-P2A-mCherry
# Procedure: Stable BRD4(S)-BFP reporter KBM7 iCas9 cell line was generated as previously described. […] Cells were subsequently washed, resuspended in FACS buffer and analyzed on LSRFortessa (BD Biosciences). Flow cytometry data was analyzed in FlowJo (v10.8.1). BFP and mCherry mean fluorescence intensity (MFI) values for were normalized by background subtraction of the respective values from reporter negative KBM7 wild type cells.
# BRD2 [3] = biological target: T1, BRD2; test: BRD2 levels by Western blot in Jurkat cells; set-up: endogenous in cells; host or cells: Jurkat; Hep G2; MDA-MB-231; KBM7 (WT, DCAF11 KO, DDB1 KO); Dmax: dose or concentration left out as unconfirmed; conditions: for degradation of BRD2: 3 µM, 6 h treatment
# Procedure: as §1
# caspase-3/7 activity = test: Caspase-3/7 Activity Assay in Jurkat cells; conditions: 18 h
# Procedure: Jurkat cells (3 × 10^3) were seeded in 96-well plates in 25 μl culture medium. Cells were treated with compounds dissolved in 25 μl medium at the indicated concentration for 18 h. After adding 50 μl of Caspase-Glo® 3/7 Reagent (Promega, G8091) to each well for 30 min at room temperature, the luminescence was measured on a Spark® Multimode Microplate Reader (Tecan). The data was analyzed by the GraphPad Prism 9.0.
# [4] = individual replicates, Supplementary Fig. 7g, read-out: Cell viability (%) relative to DMSO
# [5] = 72 h, Fig. 4k, read-out: Relative cell viability (%)
# [6] = KBM7 iCas9 BRD4(S)-BFP reporter cells, WT
# [7] = reporter cells, DCAF11 KO + WT cDNA
# T2 sequence (Q15059 whole entry): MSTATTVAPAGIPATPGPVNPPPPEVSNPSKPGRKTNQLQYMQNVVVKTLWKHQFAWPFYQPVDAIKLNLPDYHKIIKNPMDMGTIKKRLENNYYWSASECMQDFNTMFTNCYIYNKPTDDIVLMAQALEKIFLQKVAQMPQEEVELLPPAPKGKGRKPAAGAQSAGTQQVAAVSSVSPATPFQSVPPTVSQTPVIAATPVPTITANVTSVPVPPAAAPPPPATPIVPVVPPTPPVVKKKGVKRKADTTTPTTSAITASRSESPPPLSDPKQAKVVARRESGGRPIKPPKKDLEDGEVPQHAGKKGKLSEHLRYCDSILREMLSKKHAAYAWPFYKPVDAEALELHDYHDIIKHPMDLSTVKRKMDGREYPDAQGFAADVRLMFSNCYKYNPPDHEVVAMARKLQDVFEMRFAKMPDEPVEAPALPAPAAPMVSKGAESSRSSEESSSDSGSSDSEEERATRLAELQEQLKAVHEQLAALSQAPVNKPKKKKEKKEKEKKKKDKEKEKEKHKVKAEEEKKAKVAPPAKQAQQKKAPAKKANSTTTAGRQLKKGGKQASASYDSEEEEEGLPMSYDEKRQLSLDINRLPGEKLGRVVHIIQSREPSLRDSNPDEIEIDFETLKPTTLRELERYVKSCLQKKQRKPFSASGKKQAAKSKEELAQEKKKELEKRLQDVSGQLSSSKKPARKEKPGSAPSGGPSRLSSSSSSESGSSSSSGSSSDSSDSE
# T1 sequence (P25440 whole entry): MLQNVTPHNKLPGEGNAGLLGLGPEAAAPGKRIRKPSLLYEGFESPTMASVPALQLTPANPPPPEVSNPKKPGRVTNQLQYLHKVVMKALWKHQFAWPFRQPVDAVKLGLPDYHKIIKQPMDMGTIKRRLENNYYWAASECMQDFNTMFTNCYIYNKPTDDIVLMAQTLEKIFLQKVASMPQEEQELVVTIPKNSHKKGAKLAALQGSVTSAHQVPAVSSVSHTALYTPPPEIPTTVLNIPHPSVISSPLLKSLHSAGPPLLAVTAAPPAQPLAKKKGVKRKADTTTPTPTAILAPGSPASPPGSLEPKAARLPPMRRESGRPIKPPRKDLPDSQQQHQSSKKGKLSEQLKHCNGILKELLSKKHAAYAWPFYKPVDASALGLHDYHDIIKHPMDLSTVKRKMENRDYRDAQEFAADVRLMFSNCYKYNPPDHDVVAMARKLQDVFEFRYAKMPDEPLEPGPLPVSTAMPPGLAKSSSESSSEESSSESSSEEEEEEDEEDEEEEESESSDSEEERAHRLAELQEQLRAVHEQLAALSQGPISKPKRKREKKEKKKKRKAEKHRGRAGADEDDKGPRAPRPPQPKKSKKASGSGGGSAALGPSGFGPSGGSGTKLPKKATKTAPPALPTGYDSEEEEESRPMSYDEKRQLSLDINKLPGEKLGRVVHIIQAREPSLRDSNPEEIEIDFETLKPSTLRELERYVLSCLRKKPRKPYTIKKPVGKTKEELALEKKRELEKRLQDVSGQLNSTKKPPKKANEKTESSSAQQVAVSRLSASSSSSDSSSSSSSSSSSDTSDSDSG
smiles,measurement,setting,value
Cc1sc2c(c1C)C(c1ccc(Cl)cc1)=N[C@@H](CC(=O)NCCOCCOCCOCCOCCNC(=O)COc1c(Br)cc(/C=C3\C(=O)Nc4ccc(Br)cc43)cc1Br)c1nnc(C)n1-2 [Compound 9],BRD2 degradation after knockout of DDB1 in KBM7 cells,BRD2 [1],did not lead to BRD2 degradation anymore
same,BRD2 degradation in DCAF11 knockout (KO1 and KO2) KBM7 cells,BRD2 [1],abolished
same,BRD2 degradation in KBM7 cells,BRD2 [1],displayed BRD2-degrading activity
same,degradation of BRD3,BRD3,potent degradation activity
same,hook effect for BRD3,"BRD3; 6 h, at 10 µM",strong hook effect
same,GI50,Jurkat cells,90 ± 20 nM
same,"viability at 72 h, 10 nmol/L",[2]; [4],89.8%
same,"viability at 72 h, 30 nmol/L",[2]; [4],92.8%
same,"viability at 72 h, 100 nmol/L",[2]; [4],101%
same,"viability at 72 h, 1000 nmol/L",[2]; [4],13%
same,"viability at 72 h, 3000 nmol/L",[2]; [4],1.47%
same,"viability at 72 h, 0.01 µM",[2]; [5],100%
same,"viability at 72 h, 0.03 µM",[2]; [5],92%
same,"viability at 72 h, 0.1 µM",[2]; [5],64.6%
same,norm BRD4 abundance,BRD4(S)-BFP; [6],0.4125
same,norm BRD4 abundance,BRD4(S)-BFP; [7],0.4289
same,norm BRD4 abundance,"BRD4(S)-BFP; reporter cells, DCAF11 KO",0.7503
same,degradation of BRD2,BRD2 [3],potent degradation activity
same,BRD2 levels after washout,"BRD2 [3]; 10 μM, 5 h prior to washout",did not recover
same,DC50,"BRD2 [3]; 6 h, read-out: half-maximal degradation concentration (DC50) of BRD2",255 nM
same,Dmax,"BRD2 [3]; 6 h, read-out: maximum level of degradation (Dmax) of BRD2",84%
same,hook effect for BRD2,"BRD2 [3]; 6 h, up to 50 µM concentration",almost no hook effect
same,caspase-3/7 activation compared with JQ1 or non-active degraders 16 and 17,caspase-3/7 activity,substantially higher
O=C1Nc2ccc(Br)cc2C1=Cc1cc(Br)c(O)c(Br)c1 [Compound 2],GI50,Jurkat cells,> 30000 nM
same,Relative cell viability (%),"Jurkat cells; 10 nM, 0.01 µM",109.397% and 95.8659%
same,Relative cell viability (%),"Jurkat cells; 30 nM, 0.03 µM",109.179% and 98.227%
same,Relative cell viability (%),"Jurkat cells; 100 nM, 0.1 µM",109.452% and 110.948%
same,Relative cell viability (%),"Jurkat cells; 300 nM, 0.3 µM",108.619% and 101.195%
same,Relative cell viability (%),"Jurkat cells; 1000 nM, 1 µM",100.635% and 106.748%
same,Relative cell viability (%),"Jurkat cells; 3000 nM, 3 µM",102.832% and 100.062%
same,Relative cell viability (%),"Jurkat cells; 10000 nM, 10 µM",99.6522% and 88.024%
same,Relative cell viability (%),"Jurkat cells; 30000 nM, 30 µM",74.0357% and 70.3951%
same,Cell viability (%) relative to DMSO,Jurkat cells; concentration 10 nmol/L,103.951% and 104.068%
same,Cell viability (%) relative to DMSO,Jurkat cells; concentration 30 nmol/L,103.682% and 105.344%
same,Cell viability (%) relative to DMSO,Jurkat cells; concentration 100 nmol/L,100.341% and 100.604%
same,Cell viability (%) relative to DMSO,Jurkat cells; concentration 300 nmol/L,97.5611% and 103.704%
same,Cell viability (%) relative to DMSO,Jurkat cells; concentration 1000 nmol/L,98.2177% and 99.0254%
same,Cell viability (%) relative to DMSO,Jurkat cells; concentration 3000 nmol/L,82.942% and 99.8195%
same,Cell viability (%) relative to DMSO,Jurkat cells; concentration 10000 nmol/L,67.1883% and 83.6742% and 92.9267%
same,Cell viability (%) relative to DMSO,Jurkat cells; concentration 30000 nmol/L,49.2545% and 60.9936%
same,"viability at 72 h, 10 nmol/L",[2]; [4],95.2%
same,"viability at 72 h, 30 nmol/L",[2]; [4],91.8%
same,"viability at 72 h, 100 nmol/L",[2]; [4],87.9%
same,"viability at 72 h, 300 nmol/L","[2]; concentration 300 nmol/L, individual replicates, Supplementary Fig. 7g, read-out: Cell viability (%) relative to DMSO",89.9%
same,"viability at 72 h, 1000 nmol/L",[2]; [4],90.3%
same,"viability at 72 h, 3000 nmol/L",[2]; [4],86.4%
same,"viability at 72 h, 30000 nmol/L","[2]; concentration 30000 nmol/L, individual replicates, Supplementary Fig. 7g, read-out: Cell viability (%) relative to DMSO",44.6%
same,"viability at 72 h, 0.01 µM",[2]; [5],98.6%
same,"viability at 72 h, 0.03 µM",[2]; [5],96.8%
same,"viability at 72 h, 0.1 µM",[2]; [5],93.4%
same,"viability at 72 h, 0.3 µM",[2]; [5],95.1%
same,"viability at 72 h, 1 µM",[2]; [5],96.9%
same,"viability at 72 h, 3 µM","[2]; 72 h, 3000 nM, Fig. 4k, read-out: Relative cell viability (%)",93.5%
same,"viability at 72 h, 10 µM","[2]; 72 h, 10000 nM, Fig. 4k, read-out: Relative cell viability (%)",80.3%
same,"viability at 72 h, 30 µM","[2]; 72 h, 30000 nM, Fig. 4k, read-out: Relative cell viability (%)",59.8%
same,"BRD2 protein levels, ligands alone or in combination","BRD2 [3]; 3 μM, 4 h",did not reduce BRD2 protein levels
Cc1sc2c(c1C)C(c1ccc(Cl)cc1)=NC(CC(=O)NCCOCCOCCOCCOc1c(Br)cc(C=C3C(=O)Nc4ccc(Br)cc43)cc1Br)c1nnc(C)n1-2 (stereo not drawn) [Compound 10],BRD2 degradation after knockout of DDB1 in KBM7 cells,BRD2 [1],did not lead to BRD2 degradation anymore
same,BRD2 degradation in DCAF11 knockout (KO1 and KO2) KBM7 cells,BRD2 [1],abolished
same,BRD2 degradation in KBM7 cells,BRD2 [1],displayed BRD2-degrading activity
same,degradation of BRD3,BRD3,potent degradation activity
same,GI50,Jurkat cells,190 ± 30 nM
same,"viability at 72 h, 10 nmol/L",[2]; [4],89.7%
same,"viability at 72 h, 30 nmol/L",[2]; [4],90.1%
same,"viability at 72 h, 0.1 µM",[2]; [5],70.8%
same,"viability at 72 h, 0.3 µM",[2]; [5],33.9%
same,"viability at 72 h, 1 µM",[2]; [5],1.17%
same,norm BRD4 abundance,BRD4(S)-BFP; [6],0.5147
same,norm BRD4 abundance,BRD4(S)-BFP; [7],0.5732
same,norm BRD4 abundance,"BRD4(S)-BFP; reporter cells, DCAF11 KO",0.8082
same,degradation of BRD2,BRD2 [3],potent degradation activity
same,remaining activity at 3 µM,"BRD2 [3]; Jurkat, 6 h, 3 μM, 6 h, Fig. 4j, read-out: BRD2/Vinculin intensity (relative to DMSO control group)",30.7%
same,caspase-3/7 activation compared with JQ1 or non-active degraders 16 and 17,caspase-3/7 activity,substantially higher
